Experimental data from patent US20220096487A1 (priority 2019, published 2022).
“And” between values parts separate entries of the source, which are not always exact repeats. Identical values can stand only once. “Also recorded” adds a separate entry of the source. Marks after values point to notes of the source that are not given here.

What was measured:
[1] = biological target: CYP2A6 (Homo sapiens, UniProt P11509); assay: In vitro inhibition of CYP2A6; assay type: in vitro ADME; conditions: did not inhibit
Chain of CYP2A6 (P11509 whole entry): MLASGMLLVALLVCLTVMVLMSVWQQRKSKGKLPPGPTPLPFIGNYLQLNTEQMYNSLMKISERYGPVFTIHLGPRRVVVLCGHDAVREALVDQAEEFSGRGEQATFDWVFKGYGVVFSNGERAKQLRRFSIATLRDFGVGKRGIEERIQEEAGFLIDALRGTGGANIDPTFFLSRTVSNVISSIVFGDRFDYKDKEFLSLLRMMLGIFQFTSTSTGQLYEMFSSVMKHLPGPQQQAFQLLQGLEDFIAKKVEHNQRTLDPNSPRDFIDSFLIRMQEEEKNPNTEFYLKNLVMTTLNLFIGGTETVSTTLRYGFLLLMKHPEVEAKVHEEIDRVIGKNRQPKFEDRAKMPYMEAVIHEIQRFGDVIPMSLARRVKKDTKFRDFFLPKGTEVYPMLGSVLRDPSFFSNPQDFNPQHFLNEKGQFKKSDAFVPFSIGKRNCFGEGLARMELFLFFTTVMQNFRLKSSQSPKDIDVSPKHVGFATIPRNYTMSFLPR

[2] = test system: L5178Y mouse lymphoma; assay: Mouse lymphoma assay
[3] = biological target: CYP2C19 (Homo sapiens, UniProt P33261); assay: In vitro inhibition of CYP2C19; assay type: in vitro ADME; conditions: did not inhibit
[4] = biological target: T1, OATP1B3 (Homo sapiens, UniProt Q9NPD5); assay: In vitro substrate assessment, OATP1B3; assay type: in vitro ADME
T1 sequence (Q9NPD5 whole entry): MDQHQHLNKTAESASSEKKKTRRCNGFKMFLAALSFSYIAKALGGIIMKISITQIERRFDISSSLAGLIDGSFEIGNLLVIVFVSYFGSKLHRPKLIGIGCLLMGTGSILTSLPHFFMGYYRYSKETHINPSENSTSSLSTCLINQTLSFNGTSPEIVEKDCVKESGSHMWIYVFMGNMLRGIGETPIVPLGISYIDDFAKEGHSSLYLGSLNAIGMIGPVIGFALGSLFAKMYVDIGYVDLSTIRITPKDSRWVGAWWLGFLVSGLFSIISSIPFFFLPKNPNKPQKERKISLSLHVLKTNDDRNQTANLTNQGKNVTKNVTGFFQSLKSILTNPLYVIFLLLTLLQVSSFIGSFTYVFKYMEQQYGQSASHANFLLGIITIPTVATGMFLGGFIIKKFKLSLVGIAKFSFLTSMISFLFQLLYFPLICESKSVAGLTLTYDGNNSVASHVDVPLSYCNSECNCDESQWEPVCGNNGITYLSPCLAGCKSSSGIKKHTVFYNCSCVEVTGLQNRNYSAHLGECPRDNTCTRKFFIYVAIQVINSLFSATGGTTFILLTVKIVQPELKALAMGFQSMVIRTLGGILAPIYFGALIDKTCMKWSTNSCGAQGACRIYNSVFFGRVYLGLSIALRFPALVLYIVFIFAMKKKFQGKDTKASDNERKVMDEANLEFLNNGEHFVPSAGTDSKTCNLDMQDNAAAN

[5] = test system: OAT1 and OAT3; assay: In vivo effect on OAT1 and OAT3 substrates
[6] = biological target: MATE1 (Homo sapiens, UniProt Q96FL8); assay: In vitro inhibition of MATE1; assay type: in vitro ADME
Chain of MATE1 (Q96FL8 whole entry): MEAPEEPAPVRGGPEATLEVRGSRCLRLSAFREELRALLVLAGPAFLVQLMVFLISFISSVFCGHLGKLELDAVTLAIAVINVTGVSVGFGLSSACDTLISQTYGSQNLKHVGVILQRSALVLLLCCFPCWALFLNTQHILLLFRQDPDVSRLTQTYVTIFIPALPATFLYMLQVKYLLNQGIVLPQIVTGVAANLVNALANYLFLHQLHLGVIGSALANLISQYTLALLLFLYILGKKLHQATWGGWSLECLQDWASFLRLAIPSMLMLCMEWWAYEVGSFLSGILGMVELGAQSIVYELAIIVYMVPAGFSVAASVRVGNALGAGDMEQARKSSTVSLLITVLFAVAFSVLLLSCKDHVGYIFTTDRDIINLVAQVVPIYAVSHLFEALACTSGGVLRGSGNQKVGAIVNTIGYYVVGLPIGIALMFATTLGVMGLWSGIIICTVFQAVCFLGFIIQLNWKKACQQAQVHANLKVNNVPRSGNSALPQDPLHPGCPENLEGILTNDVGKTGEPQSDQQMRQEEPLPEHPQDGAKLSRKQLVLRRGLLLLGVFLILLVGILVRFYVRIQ

[7] = Excretion into milk of lactating rats; assay type: in vivo; conditions: female, rat, milk / maternal plasma; single oral dose of 50 mg/kg on lactation Day 10; 8 hours postdose; read-out: Milk concentration relative to maternal plasma concentration
[8] = biological target: bile salt export pump (BSEP) (Homo sapiens, UniProt O95342); assay: In vitro inhibition of BSEP; assay type: in vitro ADME; conditions: did not inhibit
[9] = test system: HIV; assay: Antiviral activity in combination with other antiviral agents; assay type: cell-based
[10] = biological target: CYP2C8 (Homo sapiens, UniProt P10632); assay: In vitro inhibition of CYP2C8; assay type: in vitro ADME; conditions: did not inhibit
Chain of CYP2C8 (P10632 whole entry): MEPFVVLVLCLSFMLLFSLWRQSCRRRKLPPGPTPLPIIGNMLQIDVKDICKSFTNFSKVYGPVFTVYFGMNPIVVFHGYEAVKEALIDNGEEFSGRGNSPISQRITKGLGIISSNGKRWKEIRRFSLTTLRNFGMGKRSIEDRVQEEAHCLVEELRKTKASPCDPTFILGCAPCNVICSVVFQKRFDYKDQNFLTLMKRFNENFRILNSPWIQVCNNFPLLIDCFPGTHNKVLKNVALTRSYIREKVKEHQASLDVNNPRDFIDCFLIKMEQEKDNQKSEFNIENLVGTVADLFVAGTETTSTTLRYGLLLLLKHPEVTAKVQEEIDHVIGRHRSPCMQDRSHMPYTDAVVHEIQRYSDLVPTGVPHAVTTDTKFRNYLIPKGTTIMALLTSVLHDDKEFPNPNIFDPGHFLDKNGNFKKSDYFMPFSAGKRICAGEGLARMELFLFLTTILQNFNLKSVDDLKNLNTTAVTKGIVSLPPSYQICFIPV

[11] = biological target: T1, OATP1B3; assay: In vitro inhibition of OATP1B3; assay type: in vitro ADME; conditions: did not inhibit
[12] = test system: 13 clinically diverse clade B isolates; assay: Viral integrase susceptibility assay using integrase coding region from clinical isolates; assay type: cell-based, HIV-1; conditions: Human immunodeficiency virus 1; 13 clade B isolates
[13] = Hypersensitivity reactions in Phase 3 clinical trials of dolutegravir; assay type: in vivo, human; conditions: subjects receiving dolutegravir in Phase 3 clinical trials
From the text: Discontinue the combination immediately if signs or symptoms of hypersensitivity reactions develop (including, but not limited to, severe rash or rash accompanied by fever, general malaise, fatigue, muscle or joint aches, blisters or peeling of the skin, oral blisters or lesions, conjunctivitis, facial edema, hepatitis, eosinophilia, angioedema, difficulty breathing). Clinical status, including liver aminotransferases, should be monitored and appropriate therapy initiated.

[14] = Pharmacokinetic properties of the components (Table 6); assay type: in vivo, human; conditions: in vivo
[15] = test system: HIV-1 clinical isolates (group M clades A-G, group O); assay: Antiviral activity in cell culture against panel of HIV-1 clinical isolates; assay type: cell-based; conditions: Human immunodeficiency virus 1; 3 in each group of M [clades A-G], and 3 in group O
[16] = biological target: MRP4 (Homo sapiens, UniProt O15439); assay: In vitro inhibition of MRP4; assay type: in vitro ADME; conditions: did not inhibit
Chain of MRP4 (O15439 whole entry): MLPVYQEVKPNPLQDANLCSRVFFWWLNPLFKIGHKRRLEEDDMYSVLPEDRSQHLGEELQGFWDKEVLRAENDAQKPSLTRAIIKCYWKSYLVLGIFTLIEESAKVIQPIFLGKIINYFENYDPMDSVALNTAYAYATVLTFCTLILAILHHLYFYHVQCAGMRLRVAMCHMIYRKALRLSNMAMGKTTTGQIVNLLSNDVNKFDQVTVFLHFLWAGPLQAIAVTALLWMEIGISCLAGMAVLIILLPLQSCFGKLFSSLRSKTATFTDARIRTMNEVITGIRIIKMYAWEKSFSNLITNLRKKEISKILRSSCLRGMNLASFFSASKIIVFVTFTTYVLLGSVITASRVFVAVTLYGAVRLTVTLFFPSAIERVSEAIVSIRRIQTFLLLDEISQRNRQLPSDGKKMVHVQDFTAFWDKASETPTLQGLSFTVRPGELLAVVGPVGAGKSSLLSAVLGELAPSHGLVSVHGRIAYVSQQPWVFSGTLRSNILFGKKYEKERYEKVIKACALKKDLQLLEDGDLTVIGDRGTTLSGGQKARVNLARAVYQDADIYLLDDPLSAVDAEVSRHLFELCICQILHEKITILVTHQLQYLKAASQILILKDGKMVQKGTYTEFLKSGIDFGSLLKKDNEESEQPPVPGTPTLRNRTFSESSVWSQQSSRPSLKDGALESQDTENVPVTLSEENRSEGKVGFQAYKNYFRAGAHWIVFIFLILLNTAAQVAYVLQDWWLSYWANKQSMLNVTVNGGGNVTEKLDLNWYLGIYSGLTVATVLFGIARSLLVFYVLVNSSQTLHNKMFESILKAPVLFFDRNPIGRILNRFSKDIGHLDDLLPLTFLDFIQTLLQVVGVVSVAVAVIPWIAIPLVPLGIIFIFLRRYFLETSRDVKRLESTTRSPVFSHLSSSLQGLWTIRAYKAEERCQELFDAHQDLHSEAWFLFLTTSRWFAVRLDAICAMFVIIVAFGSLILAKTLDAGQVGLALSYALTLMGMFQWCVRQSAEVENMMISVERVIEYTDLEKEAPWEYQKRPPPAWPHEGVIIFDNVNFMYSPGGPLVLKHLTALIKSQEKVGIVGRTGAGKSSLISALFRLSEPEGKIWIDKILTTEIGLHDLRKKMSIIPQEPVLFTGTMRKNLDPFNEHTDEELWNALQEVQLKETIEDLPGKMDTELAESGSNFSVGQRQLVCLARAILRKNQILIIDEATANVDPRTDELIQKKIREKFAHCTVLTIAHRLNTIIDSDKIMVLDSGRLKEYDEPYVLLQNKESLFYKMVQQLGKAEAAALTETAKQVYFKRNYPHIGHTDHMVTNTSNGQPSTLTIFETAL

[17] = biological target: OCT1 (Homo sapiens, UniProt O15245); assay: In vitro inhibition of OCT1; assay type: in vitro ADME; conditions: did not inhibit
[18] = biological target: UGT2B7 (Homo sapiens, UniProt P16662); assay: In vitro inhibition of UGT2B7; assay type: in vitro ADME; conditions: did not inhibit
[19] = Dolutegravir embryo-fetal development study in pregnant rats; assay type: in vivo, rat; conditions: oral up to 1,000 mg/kg daily, gestation Days 6 to 17
[20] = In vivo rodent micronucleus assay
[21] = test system: laboratory strains of wild-type HIV-1; assay: Antiviral activity against laboratory strains in PBMCs and MT-4 cells; assay type: cell-based; conditions: Human immunodeficiency virus 1, MT4
[22] = biological target: OATP1B1 (Homo sapiens, UniProt Q9Y6L6); assay: In vitro substrate assessment, OATP1B1; assay type: in vitro ADME
Chain of OATP1B1 (Q9Y6L6 whole entry): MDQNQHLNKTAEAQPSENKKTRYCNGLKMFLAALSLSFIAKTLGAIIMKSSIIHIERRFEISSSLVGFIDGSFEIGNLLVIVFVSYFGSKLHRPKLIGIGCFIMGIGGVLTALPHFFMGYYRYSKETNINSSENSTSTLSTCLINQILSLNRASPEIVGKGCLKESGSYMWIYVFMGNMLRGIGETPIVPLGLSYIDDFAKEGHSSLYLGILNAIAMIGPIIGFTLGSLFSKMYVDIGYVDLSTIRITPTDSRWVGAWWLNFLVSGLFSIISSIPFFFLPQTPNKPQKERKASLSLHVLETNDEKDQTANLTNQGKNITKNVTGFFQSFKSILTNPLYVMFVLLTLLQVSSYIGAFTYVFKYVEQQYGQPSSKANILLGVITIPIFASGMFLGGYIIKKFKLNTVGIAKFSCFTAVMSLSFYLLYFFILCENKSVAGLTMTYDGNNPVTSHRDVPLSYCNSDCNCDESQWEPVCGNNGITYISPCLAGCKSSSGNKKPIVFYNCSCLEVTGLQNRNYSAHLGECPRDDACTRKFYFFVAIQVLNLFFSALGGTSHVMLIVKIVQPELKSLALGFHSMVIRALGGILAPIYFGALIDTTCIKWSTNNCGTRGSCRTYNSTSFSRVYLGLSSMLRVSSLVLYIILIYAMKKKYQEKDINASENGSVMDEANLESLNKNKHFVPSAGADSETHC

[23] = test system: INSTI-resistant site-directed mutant HIV-1 viruses; assay: Susceptibility against INSTI-resistant site-directed mutant viruses; assay type: cell-based
[24] = biological target: UGT1A9 (Homo sapiens, UniProt O60656); assay: In vitro substrate assessment, UGT1A9; assay type: in vitro ADME
Chain of UGT1A9 (O60656 26-530): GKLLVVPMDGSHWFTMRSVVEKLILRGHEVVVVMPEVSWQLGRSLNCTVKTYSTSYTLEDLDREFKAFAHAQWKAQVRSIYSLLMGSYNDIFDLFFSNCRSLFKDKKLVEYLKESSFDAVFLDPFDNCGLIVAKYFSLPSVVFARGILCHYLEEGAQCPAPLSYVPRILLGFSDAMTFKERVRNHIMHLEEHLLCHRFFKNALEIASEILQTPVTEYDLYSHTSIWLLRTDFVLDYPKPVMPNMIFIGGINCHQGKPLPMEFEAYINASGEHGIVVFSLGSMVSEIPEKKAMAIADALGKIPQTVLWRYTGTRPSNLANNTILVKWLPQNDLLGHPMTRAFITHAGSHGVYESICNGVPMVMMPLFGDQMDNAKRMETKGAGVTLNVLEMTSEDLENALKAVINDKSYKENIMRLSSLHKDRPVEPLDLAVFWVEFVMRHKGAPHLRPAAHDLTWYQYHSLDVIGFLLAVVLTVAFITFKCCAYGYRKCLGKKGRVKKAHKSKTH

[25] = Single-dose mass balance study of [14C] dolutegravir; assay type: in vivo, human
[26] = cited from earlier work
[27] = biological target: T2, BCRP (Homo sapiens, UniProt Q9UNQ0); assay: In vitro inhibition of BCRP; assay type: in vitro ADME; conditions: did not inhibit
T2 sequence (Q9UNQ0 1-655): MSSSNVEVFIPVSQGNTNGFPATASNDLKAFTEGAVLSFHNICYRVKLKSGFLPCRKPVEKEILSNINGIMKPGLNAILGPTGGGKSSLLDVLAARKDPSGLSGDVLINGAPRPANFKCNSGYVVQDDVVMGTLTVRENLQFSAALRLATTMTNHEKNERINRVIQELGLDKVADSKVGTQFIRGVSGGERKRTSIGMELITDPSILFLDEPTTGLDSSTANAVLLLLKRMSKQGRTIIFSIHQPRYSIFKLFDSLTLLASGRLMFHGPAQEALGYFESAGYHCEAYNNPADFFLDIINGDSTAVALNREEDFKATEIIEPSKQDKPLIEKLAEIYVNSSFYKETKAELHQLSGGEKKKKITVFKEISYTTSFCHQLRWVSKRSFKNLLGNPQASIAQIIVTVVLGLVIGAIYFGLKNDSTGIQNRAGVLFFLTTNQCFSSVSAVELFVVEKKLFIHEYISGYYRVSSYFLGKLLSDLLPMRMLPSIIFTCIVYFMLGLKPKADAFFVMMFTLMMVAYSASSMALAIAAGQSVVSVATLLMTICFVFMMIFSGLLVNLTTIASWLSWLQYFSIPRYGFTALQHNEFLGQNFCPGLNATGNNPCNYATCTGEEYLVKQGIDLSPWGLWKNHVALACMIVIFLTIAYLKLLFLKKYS

In the case of `C[C@@H]1CCO[C@H]2Cn3cc(C(=O)NCc4ccc(F)cc4F)c(=O)c(O)c3C(=O)N12` [Dolutegravir, dolutegravir], the IC50 [1] is reported as greater than 50 µM, the “Genotoxicity/mutagenicity, mouse lymphoma assay” value [2] is reported as “not genotoxic” and the IC50 [3] is reported as greater than 50 µM. The “Substrate of OATP1B3” value [4] was “not a substrate”, the “Effect on plasma concentrations of tenofovir or para-amino hippurate, substrates of OAT1 and OAT3” value [5] was “did not alter” and the IC50 [6] was 6.34 µM. For the same compound, the Kp at 8 h [7] was no more than 1.3, the IC50 [8] was greater than 50 µM and the “Antagonism with tested anti-HIV agents” value [9] was “Neither dolutegravir nor lamivudine were antagonistic”. The IC50 [10] was greater than 50 µM, the IC50 [11] was greater than 50 µM and the EC50 [12] was 0.00052 µM. The “Hypersensitivity reactions, % of subjects” value [13] was less than 1%, the half-life ([14]; human) was roughly 14 h and the “Major route of elimination” value [14] was “Metabolism”. The Metabolic pathways [14] was “UGT1A1; also recorded: CYP3A (minor)”, the “Tmax, median” value [14] was 2.5 h and the EC50 [15] was 0.02 to 2.14 nM. For the same compound, the IC50 [16] was greater than 50 µM, the IC50 [17] was greater than 50 µM and the IC50 [18] was greater than 50 µM. The “Effects on embryo-fetal development” value [19] was “No adverse effects”, the “Genotoxicity, in vivo rodent micronucleus assay” value [20] was “not genotoxic” and the EC50 [21] was 0.5 nM to 2.1 nM and 0.00021 µg/mL to 0.00085 µg/mL. For the same compound, the “Substrate of OATP1B1” value [22] was “not a substrate”, the “Decrease in dolutegravir susceptibility from reference” value ([23]; multiple substitutions T66K/L74M, E92Q/N155H, G140C/Q148R, G140S/Q148H, R or K, Q148R/N155H, T97A/G140S/Q148, E138/G140/Q148) was greater than 2 fold and the “Decrease in dolutegravir susceptibility from reference” value ([23]; single INSTI-resistance substitutions T66K, I151L, and S153Y) was greater than 2 fold. The “Substrate of UGT1A9” value [24] was “substrate”, the “% of dose excreted as total 14C in feces” value ([25]; single dose) was 64% and the “% of dose excreted as total 14C in urine” value ([25]; single dose) was 31^b %. For the same compound, the “% of dose excreted as unchanged drug in feces” value ([25]; single dose) was 53%, the “% of dose excreted as unchanged drug in the urine” value ([25]; single-dose mass balance study of [14C] dolutegravir) was <1^b % and the “Neural tube defects, % of births” value ([26]; mothers exposed to dolutegravir-containing regimens at the time of conception, 4 of 426 births) was 0.94%. The “Neural tube defect in infants” value ([26]; women who started dolutegravir during pregnancy (n=2,812)) was “No infant” and the IC50 [27] was greater than 50 µM.
